# Source: patent US4827004A, “Isoprene derivatives” (Hoffmann-La Roche Inc., priority 1986, dated 1989)
# Like-named read-outs stand apart in the source and are kept apart here.
# How the values were obtained:
# [1] = system: mucous membrane of the stomach; assay: ethanol test (mucosa-protective activity; ethanol-induced gastric lesions); format: in vivo, male rats; details: Rattus norvegicus, po, read-out: Ethanol Test ID 50
# Experimental: The experimental procedure described hereinafter was used to determine the muscosa-protective property:
# The oral administration of absolute ethanol to male rats in a dosage of 1 ml per rat leads within 1 hour to bloody lesions of the mucous membrane of the stomach. Various dosages of the substances to be tested (suspended in 0.125% carboxymethylcellulose) or of the vehicle alone (control) are administered to the rats orally (1 ml per rat) 30 minutes prior to the treatment with ethanol. One hour after the administration of the ethanol the animals are killed, their stomachs are investigated for the presence of lesions and the number and the total dimension of such lesions are determined. The ID50 is that dosage of a test substance which reduces by 50% the number of lesions in comparison to the control group.
# (§1) In the following Table there are given for a series of representative compounds of formula I the results of the testing with respect to their mucosa-protective activity ("ethanol test") and to their gastric acid secretion-inhibiting activity. Moreover, this Table contains data concerning the acute toxicity (LD50 in the case of single oral administration to mice).
# gastric acid secretion = assay: gastric acid secretion-inhibiting activity (pylorus ligation according to Shay et al.); format: in vivo, male rats; details: Rattus norvegicus, read-out: Gastric acid secretion-inhibition, ID 50
# Experimental: The test procedure described hereinafter was used to determine the gastric acid secretion-inhibiting activity:
# The pylorus of male rats is ligated under slight ether narcosis in accordance with Shay et al. [Gastroenterology 5, 43 (1945)]. The substances to be tested, suspended in 0.5% carboxymethylcellulose, are administered intraduodenally. Control animals are treated only with the vehicle. Five hours after the ligation the animals are killed, the volume and acidity of their gastric juice are determined and the values obtained are compared with those of control animals. The ID50 is that dosage of a test substance which brings about a 50% decrease of the secretion in comparison to the control animals.
# as §1
# [2] = acute toxicity (single oral administration); details: mouse, in vivo, read-out: Toxicity LD 50
# Text: Representative compounds of formula I were investigated with respect to their mucosa-protective and gastric acid secretion-inhibiting properties as well as to their toxicity.
# as §1
# [3] = 30 minutes before ethanol, dosage reducing number of lesions by 50% vs control, male rats
# [4] = intraduodenal, 5 hours after pylorus ligation, 50% decrease of secretion vs control, male rats
# [5] = p.o., single oral administration to mice
Compound,"ED50 [1, 3] [mg/kg]",ED50 (gastric acid secretion; [4]) [mg/kg],LD50 ([2]; po) [mg/kg],"LD50 [2, 5] [mg/kg]",ED50 [1] [mg/kg],ED50 (gastric acid secretion; 5 h) [mg/kg]
"C=C(C)C(=O)CC/C(C)=C/CC/C(C)=C/C=NO (mixture of isomers) [T, (2E,6E)-3,7,11-trimethyl-10-oxo-2,6,11-dodecatrienal (E/Z)-oxime]",7.8,9.3,–,–,–,–
"C#CC(CC/C(C)=C/CC/C(C)=C/CO)=NOC (mixture of isomers) [U, (6E,10E)-12-hydroxy-6,10-dimethyl-6,10-dodecadien-1-yn-3-one (E/Z)-O-methyl oxime]",7.9,43.9,1000 to 2000,–,–,–
"CC=CC(O)CC/C(C)=C/CC/C(C)=C/CO (mixture of isomers) [V, (2E,6E,11(E/Z))-3,7-dimethyl-2,6,11-tridecatriene-1,10-diol]",9.3,57.4,–,–,–,–
"C#CC(=O)CC/C(C)=C/CC/C(C)=C/CO [A, (all-E)-12-hydroxy-6,10-dimethyl-6,10-dodecadien-1-yn-3-one]",0.55,2,1000 to 2000,–,–,–
"C=CC(=O)CC/C(C)=C/CC/C(C)=C/CO [B, (all-E)-12-hydroxy-6,10-dimethyl-1,6,10-dodecatrien-3-one]",0.62,68.2,–,–,–,–
"CC#CC(=O)CC/C(C)=C/CC/C(C)=C/CO [C, (all-E)-13-hydroxy-7,11-dimethyl-7,11-tridecadien-2-yn-4-one]",0.78,80.3,1000 to 2000,–,–,–
"C/C=C/C(=O)CC/C(C)=C/CC/C(C)=C/CO [D, (all-E)-13-hydroxy-7,11-dimethyl-2,7,11-tridecatrien-4-one]",0.79,66,1000 to 2000,–,–,–
"C#CC(CC/C(C)=C/CC/C(C)=C/CO)(OCC)OCC [E, (all-E)-10,10-diethoxy-3,7-dimethyl-2,6-dodecadien-11-yn-1-ol]",0.93,18.4,–,–,–,–
"C=C(C)C(=O)CC/C(C)=C/CC/C(C)=C/CO [F, (all-E)-12-hydroxy-2,6,10-trimethyl-1,6,10-dodecatrien-3-one]",1.3,27.7,625 to 1250,–,–,–
"C=C(C)C(=O)CC/C(C)=C/CC/C(C)=C/C=O [G, (all-E)-10-oxo-3,7,11-trimethyl-2,6,11-dodecatrienal]",1.8,62.4,1000 to 2000,–,–,–
"C=C(C)C(=O)CC/C(C)=C\CC/C(C)=C\CO [H, (6Z,10Z)-12-hydroxy-2,6,10-trimethyl-1,6,10-dodecatrien-3-one]",1.8,57.7,–,2500 to 5000,–,–
"C=C(C)C1(CC/C(C)=C/CC/C(C)=C/CO)OCCO1 [I, (all-E)-3,7-Dimethyl-9-[2-(1-methylvinyl)-1,3-dioxolan-2-yl]-2,6-nonadien-1-ol]",2.7,13.2,> 4000,–,–,–
"C=C(C)C(=O)CC/C(C)=C/CC/C(C)=C/C(N)=O [J, (E,E)-3,7,11-trimethyl-10-oxo-2,6,11-dodecatrienamide]",–,–,–,1000 to 2000,3.4,63.9
"CC(C)=CC(=O)CC/C(C)=C/CC/C(C)=C/CO [K, (all-E)-13-hydroxy-2,7,11-trimethyl-2,7,11-tridecatrien-4-one]",3.6,60.8,–,–,–,–
"C=C(C)C(=O)CC/C(C)=C/CC/C(C)=C\CO [L, (6E,10Z)-12-hydroxy-2,6,10-trimethyl-1,6,10-dodecatrien-3-one]",4.4,73.4,–,625 to 1250,–,–
"C=C(C)C(=O)CC/C(C)=C\CC/C(C)=C/CO [M, (6Z,10E)-12-hydroxy-2,6,10-trimethyl-1,6,10-dodecatrien-3-one]",4.5,62.7,–,2500 to 5000,–,–
"C=C(C)C(O)CC/C(C)=C/CC/C(C)=C/CO (stereo not drawn) [N, (all-E)-3,7,11-trimethyl-2,6,11-dodecatriene-1,10-diol]",3.2,41.6,> 2000,–,–,–
"C=C(C)C(O)CC/C(C)=C/CC/C(C)=C/C(=O)O (stereo not drawn) [O, (all-E)-10-hydroxy-3,7,11-trimethyl-2,6,11-dodecatrienoic acid]",26.8,48.8,1250 to 2500,–,–,–
"C=C(C)C(=O)CC/C(C)=C/CC/C(C)=C/C(=O)O [P, (all-E)-10-Oxo-3,7,11-trimethyl-2,6,11-dodecatrienoic acid]",5,79.6,1250 to 2500,–,–,–
"C=C(C)C(CC/C(C)=C/CC/C(C)=C/CO)(OC)OC [Q, (all-E)-10,10-dimethoxy-3,7,11-trimethyl-2,6,11-dodecatrien-1-ol]",5.3,4.7,> 5000,–,–,–
"C=C(C)C(O)CC/C(C)=C/CC/C(C)=C/C=O (stereo not drawn) [R, (all-E)-10-hydroxy-3,7,11-trimethyl-2,6,11-dodecatrienal]",6.4,28.6,> 5000,–,–,–
"C/C(=C\CO)CC/C=C(\C)CCC(=O)C#C[Si](C)(C)C [S, (all-E)-12-hydroxy-6,10-dimethyl-1-(trimethylsilyl)-6,10-dodecadien-1-yn-3-one]",–,–,–,–,6.5,46.9
